# Measurements published in article PMC11079024, “Identification of a family of species-selective complex I inhibitors as potential anthelmintics” (Nature Communications, 2024).
# Tested on: L1 wild-type C. elegans
# Experiment: microbe, parasite or virus in culture
# Conditions: Caenorhabditis elegans, read-out: C. elegans KCN Survival Assay LC50, estimated from fitted dose-response curves; mean of at least two biological replicates
row,Structure (SMILES),LC50 [µM]
1,CCc1cc(OCCn2cnc3ccccc32)ccc1Cl [Compound 7925288],19.1
2,Cc1ccccc1OCCCn1c(C)nc2ccccc21 [Compound 7916923],12.1
3,Cc1ccc(OCCn2cnc3ccccc32)c(C)c1 [Compound 7706808],12

# Target: B. taurus (heart) complex I (Bos taurus, UniProt P03887+P17694+P42026)
# Sequence (P03887 whole entry): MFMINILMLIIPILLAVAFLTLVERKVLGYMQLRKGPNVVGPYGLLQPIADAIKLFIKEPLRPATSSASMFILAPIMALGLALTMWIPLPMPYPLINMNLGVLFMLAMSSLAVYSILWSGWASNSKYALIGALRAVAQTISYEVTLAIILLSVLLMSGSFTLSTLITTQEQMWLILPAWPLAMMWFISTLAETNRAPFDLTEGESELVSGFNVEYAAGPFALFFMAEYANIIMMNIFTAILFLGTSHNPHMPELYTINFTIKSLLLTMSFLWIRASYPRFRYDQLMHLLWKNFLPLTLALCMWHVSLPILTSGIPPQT
# Sequence (P17694 34-463): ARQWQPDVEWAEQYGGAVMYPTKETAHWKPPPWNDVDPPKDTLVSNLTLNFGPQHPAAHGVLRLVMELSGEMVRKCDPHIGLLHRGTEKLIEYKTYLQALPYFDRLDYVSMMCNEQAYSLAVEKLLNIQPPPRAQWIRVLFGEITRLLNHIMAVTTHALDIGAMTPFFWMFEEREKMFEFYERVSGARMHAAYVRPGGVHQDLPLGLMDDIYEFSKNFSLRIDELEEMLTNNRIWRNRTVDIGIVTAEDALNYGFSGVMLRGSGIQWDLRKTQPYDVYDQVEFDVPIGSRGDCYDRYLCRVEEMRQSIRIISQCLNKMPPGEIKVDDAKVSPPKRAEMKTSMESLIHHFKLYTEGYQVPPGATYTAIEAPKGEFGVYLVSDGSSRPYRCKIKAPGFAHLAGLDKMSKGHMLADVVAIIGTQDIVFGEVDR
# Sequence (P42026 38-216): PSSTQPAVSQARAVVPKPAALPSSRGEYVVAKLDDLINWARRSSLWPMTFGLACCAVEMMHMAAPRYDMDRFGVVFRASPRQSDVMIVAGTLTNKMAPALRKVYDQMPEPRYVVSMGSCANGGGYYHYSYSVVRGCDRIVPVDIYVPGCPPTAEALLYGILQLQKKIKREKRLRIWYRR
# Experiment: biochemical
# Format: biochemical
# Conditions: B. taurus heart mitochondria; estimated from fitted dose-response curves; read-out: B. taurus Complex I IC50
# How it was run: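 Complex I activity followed as DCIP reduction (600 nm, 30 s reads, 15 min) with 80 μM NADH and 60 μM decylubiquinone in 25 mM KPi pH 7.5 containing 2 μM antimycin A and 2 mM KCN. Freeze-thawed mouse or bovine heart mitochondria at 0.2 mg/mL; initial-rate percent of solvent control, single-point 100 μM or dose-response.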
row,Structure (SMILES),IC50 [µM]
1,Cc1ccccc1OCCCn1c(C)nc2ccccc21 [Compound 7916923],6.67
2,Cc1ccc(OCCn2cnc3ccccc32)c(C)c1 [Compound 7706808],8.48

# Same assay, conditions: B. taurus heart mitochondria; read-out: B. taurus Complex I IC50
row,Structure (SMILES),IC50 [µM]
1,CCc1cc(OCCn2cnc3ccccc32)ccc1Cl [Compound 7925288],5.7

# Same assay, conditions: Dose 0.0001 µM; read-out: B. taurus mitochondrial complex I activity
row,Structure (SMILES),activity at 0.0001 µM [%]
1,CCc1cc(OCCn2cnc3ccccc32)ccc1Cl [Compound 7925288],89.8
2,Cc1ccccc1OCCCn1c(C)nc2ccccc21 [Compound 7916923],98.7
3,Cc1ccc(OCCn2cnc3ccccc32)c(C)c1 [Compound 7706808],97.5

# Same assay, conditions: Dose 0.0005 µM; read-out: B. taurus mitochondrial complex I activity
row,Structure (SMILES),activity at 0.0005 µM [%]
1,CCc1cc(OCCn2cnc3ccccc32)ccc1Cl [Compound 7925288],91.3
2,Cc1ccccc1OCCCn1c(C)nc2ccccc21 [Compound 7916923],101
3,Cc1ccc(OCCn2cnc3ccccc32)c(C)c1 [Compound 7706808],94.8

# Same assay, conditions: Dose 0.001 µM; read-out: B. taurus mitochondrial complex I activity
row,Structure (SMILES),activity at 0.001 µM [%]
1,CCc1cc(OCCn2cnc3ccccc32)ccc1Cl [Compound 7925288],88.8
2,Cc1ccccc1OCCCn1c(C)nc2ccccc21 [Compound 7916923],103
3,Cc1ccc(OCCn2cnc3ccccc32)c(C)c1 [Compound 7706808],99.1

# Same assay, conditions: Dose 0.0025 µM; read-out: B. taurus mitochondrial complex I activity
row,Structure (SMILES),activity at 0.0025 µM [%]
1,CCc1cc(OCCn2cnc3ccccc32)ccc1Cl [Compound 7925288],86.3
2,Cc1ccccc1OCCCn1c(C)nc2ccccc21 [Compound 7916923],101
3,Cc1ccc(OCCn2cnc3ccccc32)c(C)c1 [Compound 7706808],97

# Same assay, conditions: Dose 0.005 µM; read-out: B. taurus mitochondrial complex I activity
row,Structure (SMILES),activity at 0.005 µM [%]
1,CCc1cc(OCCn2cnc3ccccc32)ccc1Cl [Compound 7925288],84.5
2,Cc1ccccc1OCCCn1c(C)nc2ccccc21 [Compound 7916923],107
3,Cc1ccc(OCCn2cnc3ccccc32)c(C)c1 [Compound 7706808],95.6

# Same assay, conditions: Dose 0.013 µM; read-out: B. taurus mitochondrial complex I activity
row,Structure (SMILES),activity at 0.013 µM [%]
1,CCc1cc(OCCn2cnc3ccccc32)ccc1Cl [Compound 7925288],89.2
2,Cc1ccccc1OCCCn1c(C)nc2ccccc21 [Compound 7916923],99.6
3,Cc1ccc(OCCn2cnc3ccccc32)c(C)c1 [Compound 7706808],97.8

# Same assay, conditions: Dose 0.025 µM; read-out: B. taurus mitochondrial complex I activity
row,Structure (SMILES),activity at 0.025 µM [%]
1,CCc1cc(OCCn2cnc3ccccc32)ccc1Cl [Compound 7925288],82.7
2,Cc1ccccc1OCCCn1c(C)nc2ccccc21 [Compound 7916923],102
3,Cc1ccc(OCCn2cnc3ccccc32)c(C)c1 [Compound 7706808],90.5

# Same assay, conditions: Dose 0.063 µM; read-out: B. taurus mitochondrial complex I activity
row,Structure (SMILES),activity at 0.063 µM [%]
1,CCc1cc(OCCn2cnc3ccccc32)ccc1Cl [Compound 7925288],84.2
2,Cc1ccccc1OCCCn1c(C)nc2ccccc21 [Compound 7916923],104
3,Cc1ccc(OCCn2cnc3ccccc32)c(C)c1 [Compound 7706808],96

# Same assay, conditions: Dose 0.125 µM; read-out: B. taurus mitochondrial complex I activity
row,Structure (SMILES),activity at 0.125 µM [%]
1,CCc1cc(OCCn2cnc3ccccc32)ccc1Cl [Compound 7925288],82.8
2,Cc1ccccc1OCCCn1c(C)nc2ccccc21 [Compound 7916923],90.7
3,Cc1ccc(OCCn2cnc3ccccc32)c(C)c1 [Compound 7706808],93.5

# Same assay, conditions: Dose 0.313 µM; read-out: B. taurus mitochondrial complex I activity
row,Structure (SMILES),activity at 0.313 µM [%]
1,CCc1cc(OCCn2cnc3ccccc32)ccc1Cl [Compound 7925288],79.8
2,Cc1ccccc1OCCCn1c(C)nc2ccccc21 [Compound 7916923],96.6
3,Cc1ccc(OCCn2cnc3ccccc32)c(C)c1 [Compound 7706808],91.4

# Same assay, conditions: Dose 0.625 µM; read-out: B. taurus mitochondrial complex I activity
row,Structure (SMILES),activity at 0.625 µM [%]
1,CCc1cc(OCCn2cnc3ccccc32)ccc1Cl [Compound 7925288],84.6
2,Cc1ccccc1OCCCn1c(C)nc2ccccc21 [Compound 7916923],92.7
3,Cc1ccc(OCCn2cnc3ccccc32)c(C)c1 [Compound 7706808],82.8

# Same assay, conditions: Dose 1.5 µM; read-out: B. taurus mitochondrial complex I activity
row,Structure (SMILES),activity at 1.5 µM [%]
1,CCc1cc(OCCn2cnc3ccccc32)ccc1Cl [Compound 7925288],75.4
2,Cc1ccccc1OCCCn1c(C)nc2ccccc21 [Compound 7916923],79.4
3,Cc1ccc(OCCn2cnc3ccccc32)c(C)c1 [Compound 7706808],81.2

# Same assay, conditions: Dose 3 µM; read-out: B. taurus mitochondrial complex I activity
row,Structure (SMILES),activity at 3 µM [%]
1,CCc1cc(OCCn2cnc3ccccc32)ccc1Cl [Compound 7925288],61.1
2,Cc1ccccc1OCCCn1c(C)nc2ccccc21 [Compound 7916923],70.6
3,Cc1ccc(OCCn2cnc3ccccc32)c(C)c1 [Compound 7706808],69.4

# Same assay, conditions: Dose 15 µM; read-out: B. taurus mitochondrial complex I activity
row,Structure (SMILES),activity at 15 µM [%]
1,CCc1cc(OCCn2cnc3ccccc32)ccc1Cl [Compound 7925288],17.7
2,Cc1ccccc1OCCCn1c(C)nc2ccccc21 [Compound 7916923],24.7
3,Cc1ccc(OCCn2cnc3ccccc32)c(C)c1 [Compound 7706808],30.6

# Same assay, conditions: Dose 37.5 µM; read-out: B. taurus mitochondrial complex I activity
row,Structure (SMILES),activity at 37.5 µM [%]
1,CCc1cc(OCCn2cnc3ccccc32)ccc1Cl [Compound 7925288],2.74
2,Cc1ccccc1OCCCn1c(C)nc2ccccc21 [Compound 7916923],6.64
3,Cc1ccc(OCCn2cnc3ccccc32)c(C)c1 [Compound 7706808],11.4

# Same assay, conditions: Dose 75 µM; read-out: B. taurus mitochondrial complex I activity
row,Structure (SMILES),activity at 75 µM [%]
1,CCc1cc(OCCn2cnc3ccccc32)ccc1Cl [Compound 7925288],1.27
2,Cc1ccccc1OCCCn1c(C)nc2ccccc21 [Compound 7916923],2.1
3,Cc1ccc(OCCn2cnc3ccccc32)c(C)c1 [Compound 7706808],6.37

# Same assay, conditions: log10 of IC50 in µM; B. taurus mitochondria
row,Structure (SMILES),Log IC50 B. taurus complex I [µM]
1,CCc1cc(OCCn2cnc3ccccc32)ccc1Cl [Compound 7925288],0.76
2,Cc1ccccc1OCCCn1c(C)nc2ccccc21 [Compound 7916923],0.82
3,Cc1ccc(OCCn2cnc3ccccc32)c(C)c1 [Compound 7706808],0.93

# Tested on: ben-1 mutant (ECA882) C. elegans
# Experiment: microbe, parasite or virus in culture
# Conditions: Caenorhabditis elegans, read-out: C. elegans (ben-1) Development & Viability Assay LC50
# How it was run: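 Development and viability scored from single well images as total worm pixels divided by the matching DMSO control value, mean of ≥3 replicates. Worms added as synchronized L1s to HB101 suspension in liquid NGM with compound (1% DMSO v/v), grown 6 days at 20 °C with shaking.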
row,Structure (SMILES),LC50 [µM]
1,CCc1cc(OCCn2cnc3ccccc32)ccc1Cl [Compound 7925288],55.2
2,Cc1ccccc1OCCCn1c(C)nc2ccccc21 [Compound 7916923],142
3,Cc1ccc(OCCn2cnc3ccccc32)c(C)c1 [Compound 7706808],> 1000

# Same assay, conditions: Caenorhabditis elegans, read-out: C. elegans ben-1(e1880) development/viability
Structure (SMILES),viability at 1 µM [%],viability at 2 µM [%],viability at 3.9 µM [%],viability at 15.6 µM [%],viability at 31.3 µM [%],viability at 62.5 µM [%],viability at 125 µM [%],viability at 250 µM [%],viability at 500 µM [%],viability at 1000 µM [%]
CCc1cc(OCCn2cnc3ccccc32)ccc1Cl [Compound 7925288],100,96,96.4,94.7,88,39.9,3.8,3.3,2.9,1.8
Cc1ccccc1OCCCn1c(C)nc2ccccc21 [Compound 7916923],95.8,94.9,93.4,96,89.5,86.2,67.3,2.7,2.9,2.3
Cc1ccc(OCCn2cnc3ccccc32)c(C)c1 [Compound 7706808],100,96.2,97,98.9,97.3,93.8,89.7,94.6,76.7,69.9

# Same assay, conditions: Caenorhabditis elegans, read-out: C. elegans ben-1 LC50
row,Structure (SMILES),LC50 [µM]
1,Cc1ccc(OCCn2cnc3ccccc32)c(C)c1 [Compound 7706808],> 500

# Same assay, conditions: Caenorhabditis elegans, read-out: C. elegans ben-1 log10 LC50 (converted)
row,Structure (SMILES),LC50 [µM]
1,CCc1cc(OCCn2cnc3ccccc32)ccc1Cl [Compound 7925288],55.2
2,Cc1ccccc1OCCCn1c(C)nc2ccccc21 [Compound 7916923],143
3,Cc1ccc(OCCn2cnc3ccccc32)c(C)c1 [Compound 7706808],> 500
